Here are results for 1 compound from patent publication US8685949B2, “Use of 25-hydroxy vitamin D3 to improve vitality of animals” (DSM IP Assets B.V., priority 2005, dated 2014).

The test system of assay [1] is replacement gilts (Landrace×Large White) / parity-one sows. Description: Reproductive performance of parity-one sows fed 25-hydroxy-vitamin D3 (Experiment 2). It is filed as in vivo, pig. From the text:
In another commercial pig farm a total of 43 six-month-old replacement gilts (Landrace×Large White) were selected. There were two dietary treatments in different stages of the reproductive cycle (replacement gilt development, gestation, lactation). The control diet was the standard farm diet without the supplementation of 25-hydroxy-vitamin D3. The experimental diet was the standard farm diet supplemented with 25-hydroxy-vitamin D3 at 50 mcg per kg diet.
Twenty-two (22) gilts were randomly selected and assigned to the control group and the other 21 gilts to the ROVIMIX® Hy•D® 1.25% group. Breeding started when the gilts were 7 months old. They were placed in the gestating stalls after breeding and remained there until 14 days before the expected date of farrowing. They were then weighed and moved to the farrowing stalls. Piglets were weaned at 28 days of age.
(§1) The following data were collected in the farrowing stalls in Experiments 1 and 2: • 1. Litter size at birth • a. Total pigs born • b. Pigs born alive • c. Stillborn pigs • d. Mummified fetuses • 2. Pig weight at birth • 3. Litter size at weaning • 4. Mortality • 5. Pig weight at weaning

The test system is the same in assay [2]. In words: Reproductive performance of parity-one sows fed 25-hydroxy-vitamin D3 (Experiment 1). Type of assay: in vivo, pig.
Text: In a commercial pig farm a total of 27 six-month-old replacement gilts (Landrace×Large White) were selected. There were two dietary treatments in different stages of the reproductive cycle (replacement gilt development, gestation, lactation). The control diet was the standard farm diet without the supplementation of 25-hydroxy-vitamin D3. The experimental diet was the standard farm diet supplemented with 25-hydroxy-vitamin D3 at 50 mcg per kg diet.
Fourteen (14) gilts were randomly selected and assigned to the control group and the other 13 gilts to the ROVIMIX® Hy•D® 1.25% group. Breeding started when the gilts were 7 months old. They were placed in the gestating stalls after breeding and remained there until 14 days before the expected date of farrowing. They were then weighed and moved to the farrowing stalls. Piglets were weaned at 28 days of age.
as §1

The mark [3] stands for this setting: 50 mcg per kg diet, 28-day weaning.

With `C=C1CC[C@H](O)C/C1=C/C=C1\CCC[C@]2(C)[C@@H]([C@H](C)CCCC(C)(C)O)CC[C@@H]12` [25-hydroxy-vitamin D3], the “LSBA = Litter size of number of pigs born alive” value in assay [1] (50 mcg per kg diet) is 9.62. In addition, the “LSW = Litter size of number of pigs weaned at 28-day weaning” value in assay [1] (setting [3]) amounted to 8.48. Further, in assay [1] (treated minus control), the “Difference in litter size at weaning vs. control” value is reported as “+0.66” and the “Difference in pigs born alive vs. control” value is recorded as “+0.44”. In assay [2] (50 mcg per kg diet), the “BWT = Body weight of pigs at birth” value was determined as 1.45 kg and the “LSBA = Litter size of number of pigs born alive” value is recorded as 9.77. Moreover, the “LSW = Litter size of number of pigs weaned at 28-day weaning” value in assay [2] (setting [3]) is given as 9.46. For the same compound, the “Piglet weight gain at 28-day weaning” value in assay [2] (birth to 28-day weaning, control 5.33 kg) was 5.5 kg. Besides, in assay [2] (result in words), the “Weaning weights compared with control” value is listed as “not different from each other”. Moreover, the “LSBT = Litter size of total number of pigs at birth” value in assay [2] (standard farm diet supplemented with 25-hydroxy-vitamin D3 at 50 mcg per kg diet, gilt development, gestation, lactation) came out at 10.46. For the same compound, in assay [2] (treated minus control), the “Difference in litter size at weaning vs. control” value is “+1.82”, the “Difference in pigs born alive vs. control” value is “+1.84” and the “Difference in total pigs born vs. control” value is on record as “+1.46”.
